“And” between values parts separate entries of the source, which are not always exact repeats. Identical values can stand only once. Toxic doses and inconclusive results are not listed. How the source made its calls: active means survival T/C of 150% or more; inactive means T/C below 125% in these data.
System: CD2F1 mice, L1210 leukemia ip, survival T/C
Experiment: NCI In Vivo Anticancer Drug Screen. Data for tumor model L1210 Leukemia (intraperitoneal) in CD2F1 (CDF1) mice
Details: higher = longer survival
Procedure, shortened: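 Compound-dosed mice with transplantable tumor versus matched vehicle controls; endpoint ratio T/C reported.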

[1] = endpoint: mean survival time, dose: 25.0 mg/kg/injection, schedule: Q01DX009 (ip), vehicle: saline
[2] = endpoint: mean survival time, dose: 50.0 mg/kg/injection, schedule: Q01DX009 (ip), vehicle: saline
[3] = endpoint: mean survival time, dose: 100.0 mg/kg/injection, schedule: Q01DX009 (ip), vehicle: saline
[4] = endpoint: mean survival time, dose: 50.0 mg/kg/injection, schedule: Q01DX009 (ip), vehicle: saline with Tween-80
[5] = endpoint: mean survival time, dose: 100.0 mg/kg/injection, schedule: Q01DX009 (ip), vehicle: saline with Tween-80
[6] = endpoint: mean survival time, dose: 200.0 mg/kg/injection, schedule: Q01DX009 (ip), vehicle: saline with Tween-80
[7] = endpoint: mean survival time, dose: 200.0 mg/kg/injection, schedule: Q01DX009 (ip), vehicle: saline
[8] = endpoint: mean survival time, dose: 400.0 mg/kg/injection, schedule: Q01DX009 (ip), vehicle: saline
[9] = endpoint: mean survival time, dose: 12.5 mg/kg/injection, schedule: Q04DX003 (ip), vehicle: saline with Tween-80
[10] = endpoint: mean survival time, dose: 50.0 mg/kg/injection, schedule: Q04DX003 (ip), vehicle: saline
[11] = endpoint: mean survival time, dose: 100.0 mg/kg/injection, schedule: Q04DX003 (ip), vehicle: saline with Tween-80
[12] = endpoint: mean survival time, dose: 400.0 mg/kg/injection, schedule: Q01DX009 (ip), vehicle: saline with Tween-80
[13] = endpoint: mean survival time, dose: 50.0 mg/kg/injection, schedule: Q04DX003 (ip), vehicle: saline with Tween-80

Measured: T/C

OC(Cc1nc2ccccc2[nH]1)c1nc2ccccc2[nH]1 (stereo not given)
inactive: endpoint: mean survival time, dose: 50.0 mg/kg/injection, schedule: Q01DX009 (ip), vehicle: Klucel (hydroxypropylcellulose) (HPC) 104 % of control | endpoint: mean survival time, dose: 100.0 mg/kg/injection, schedule: Q01DX009 (ip), vehicle: Klucel (hydroxypropylcellulose) (HPC) 97 % of control | endpoint: mean survival time, dose: 200.0 mg/kg/injection, schedule: Q01DX009 (ip), vehicle: Klucel (hydroxypropylcellulose) (HPC) 101 % of control

O=C1NC(=O)C2C3CCC(O3)C12 (stereo not given)
inactive: [1] 102 % of control | endpoint: mean survival time, dose: 25.0 mg/kg/injection, schedule: Q04DX002 (ip), vehicle: saline with Tween-80 103 % of control and 97 % of control | [2] 105 % of control | endpoint: mean survival time, dose: 50.0 mg/kg/injection, schedule: Q04DX002 (ip), vehicle: saline with Tween-80 98 % of control and 106 % of control | [3] 102 % of control | endpoint: mean survival time, dose: 100.0 mg/kg/injection, schedule: Q04DX002 (ip), vehicle: saline with Tween-80 103 % of control and 101 % of control | endpoint: mean survival time, dose: 200.0 mg/kg/injection, schedule: Q04DX002 (ip), vehicle: saline with Tween-80 87 % of control

CCCC(C)(C)c1ccccc1
inactive: [4] 104 % of control | [5] 96 % of control | [6] 89 % of control

CCOC(=O)C(=O)c1c(N)n(C)c(=O)n(C)c1=O
inactive: endpoint: mean survival time, dose: 6.25 mg/kg/injection, schedule: Q01DX009 (ip), vehicle: Klucel (hydroxypropylcellulose) (HPC) 112 % of control | endpoint: mean survival time, dose: 12.5 mg/kg/injection, schedule: Q01DX009 (ip), vehicle: Klucel (hydroxypropylcellulose) (HPC) 87 % of control | endpoint: mean survival time, dose: 25.0 mg/kg/injection, schedule: Q01DX009 (ip), vehicle: Klucel (hydroxypropylcellulose) (HPC) 102 % of control

OCC12COCN1COC2
inactive: endpoint: mean survival time, dose: 12.5 mg/kg/injection, schedule: Q01DX009 (ip), vehicle: saline 98 % of control and 104 % of control | [1] 94 % of control and 96 % of control | [2] 101 % of control and 104 % of control | [3] 98 % of control and 101 % of control | [7] 96 % of control and 106 % of control | [8] 109 % of control and 112 % of control

[NH-]C(CO)C(=O)O.[NH-]C(CO)C(=O)O.[Pt+2] (stereo not given)
inactive: endpoint: mean survival time, dose: 0.78 mg/kg/injection, schedule: Q04DX003 (ip), vehicle: saline with Tween-80 100 % of control | endpoint: mean survival time, dose: 1.56 mg/kg/injection, schedule: Q04DX003 (ip), vehicle: saline with Tween-80 92 % of control | endpoint: mean survival time, dose: 3.13 mg/kg/injection, schedule: Q04DX003 (ip), vehicle: saline with Tween-80 95 % of control | endpoint: mean survival time, dose: 3.13 mg/kg/injection, schedule: Q04DX003 (ip), vehicle: water 100 % of control | endpoint: mean survival time, dose: 6.25 mg/kg/injection, schedule: Q04DX003 (ip), vehicle: saline with Tween-80 97 % of control | endpoint: mean survival time, dose: 6.25 mg/kg/injection, schedule: Q04DX003 (ip), vehicle: saline 102 % of control | endpoint: mean survival time, dose: 6.25 mg/kg/injection, schedule: Q04DX003 (ip), vehicle: water 103 % of control | [9] 94 % of control | endpoint: mean survival time, dose: 12.5 mg/kg/injection, schedule: Q04DX003 (ip), vehicle: saline 103 % of control | endpoint: mean survival time, dose: 12.5 mg/kg/injection, schedule: Q04DX003 (ip), vehicle: water 101 % of control | endpoint: mean survival time, dose: 25.0 mg/kg/injection, schedule: Q04DX003 (ip), vehicle: saline 100 % of control | endpoint: mean survival time, dose: 25.0 mg/kg/injection, schedule: Q04DX003 (ip), vehicle: water 91 % of control | [10] 103 % of control | endpoint: mean survival time, dose: 50.0 mg/kg/injection, schedule: Q04DX003 (ip), vehicle: water 94 % of control | endpoint: mean survival time, dose: 100.0 mg/kg/injection, schedule: Q04DX003 (ip), vehicle: saline 103 % of control | endpoint: mean survival time, dose: 100.0 mg/kg/injection, schedule: Q04DX003 (ip), vehicle: water 88 % of control | endpoint: mean survival time, dose: 200.0 mg/kg/injection, schedule: Q04DX003 (ip), vehicle: saline 86 % of control | endpoint: mean survival time, dose: 200.0 mg/kg/injection, schedule: Q04DX003 (ip), vehicle: water 88 % of control

O=COC1CC2CC1C1CCCC21 (stereo not given)
inactive: [4] 95 % of control | [5] 93 % of control | [6] 97 % of control

CC1CC/C(=N/NC(N)=O)C1 (stereo not given)
inactive: endpoint: mean survival time, dose: 50.0 mg/kg/injection, schedule: Q01DX001 (ip), vehicle: carboxymethylcellulose (CMC) 100 % of control | endpoint: mean survival time, dose: 100.0 mg/kg/injection, schedule: Q01DX001 (ip), vehicle: carboxymethylcellulose (CMC) 94 % of control | endpoint: mean survival time, dose: 200.0 mg/kg/injection, schedule: Q01DX001 (ip), vehicle: carboxymethylcellulose (CMC) 100 % of control | endpoint: mean survival time, dose: 400.0 mg/kg/injection, schedule: Q01DX001 (ip), vehicle: carboxymethylcellulose (CMC) 100 % of control

CC1=C(CNc2ncnc3nc[nH]c23)CC=CC1
inactive: [5] 88 % of control | [11] 95 % of control | [6] 92 % of control | [12] 88 % of control | endpoint: mean survival time, dose: 400.0 mg/kg/injection, schedule: Q04DX003 (ip), vehicle: saline with Tween-80 98 % of control

COC(=O)C1C2C=CC(C3CCC23)C1C(=O)OC (stereo not given)
inactive: [5] 100 % of control | [6] 93 % of control | [12] 91 % of control

c1ccc2c(CC3=NCCN3)cccc2c1
inactive: [9] 98 % of control | [13] 88 % of control | [10] 102 % of control

O=C(O)/C=C/C(=O)NCCCCCCNC(=O)/C=C/C(=O)O
inactive: [3] 91 % of control | [7] 94 % of control | [8] 91 % of control

COC(=O)Nc1nc2ccc(C(=O)c3cccs3)cc2[nH]1
active: endpoint: mean survival time, dose: 60.0 mg/kg/injection, schedule: Q04DX003 (ip), vehicle: saline 221 % of control
inactive: endpoint: mean survival time, dose: 10.0 mg/kg/injection, schedule: Q04DX003 (ip), vehicle: Klucel (hydroxypropylcellulose) (HPC) 105 % of control | endpoint: mean survival time, dose: 10.0 mg/kg/injection, schedule: Q04DX003 (ip), vehicle: other 107 % of control | endpoint: mean survival time, dose: 20.0 mg/kg/injection, schedule: Q04DX003 (ip), vehicle: Klucel (hydroxypropylcellulose) (HPC) 110 % of control | endpoint: mean survival time, dose: 40.0 mg/kg/injection, schedule: Q04DX003 (ip), vehicle: Klucel (hydroxypropylcellulose) (HPC) 120 % of control | endpoint: mean survival time, dose: 40.0 mg/kg/injection, schedule: Q04DX003 (ip), vehicle: other 110 % of control | endpoint: mean survival time, dose: 80.0 mg/kg/injection, schedule: Q04DX003 (ip), vehicle: Klucel (hydroxypropylcellulose) (HPC) 98 % of control | endpoint: mean survival time, dose: 90.0 mg/kg/injection, schedule: Q04DX003 (ip), vehicle: saline 121 % of control

CC1CCC(C(C)C)C(OC(=O)N/N=C/N(C)C)C1 (stereo not given)
inactive: endpoint: mean survival time, dose: 100.0 mg/kg/injection, schedule: Q01DX009 (ip), vehicle: other 95 % of control | endpoint: mean survival time, dose: 200.0 mg/kg/injection, schedule: Q01DX009 (ip), vehicle: other 119 % of control

CS(=O)(=O)CS(=O)(=O)OCCCl
active: endpoint: median survival time, dose: 12.5 mg/kg/injection, schedule: Q01DX009 (ip), vehicle: saline with Tween-80 168 % of control | endpoint: median survival time, dose: 25.0 mg/kg/injection, schedule: Q01DX009 (ip), vehicle: saline with Tween-80 207 % of control and 228 % of control | endpoint: median survival time, dose: 25.0 mg/kg/injection, schedule: Q01DX009 (ip), vehicle: saline 197 % of control | endpoint: median survival time, dose: 50.0 mg/kg/injection, schedule: Q01DX009 (ip), vehicle: saline with Tween-80 370 % of control and 722 % of control | endpoint: median survival time, dose: 50.0 mg/kg/injection, schedule: Q01DX009 (ip), vehicle: saline 352 % of control | endpoint: median survival time, dose: 100.0 mg/kg/injection, schedule: Q01DX009 (ip), vehicle: saline with Tween-80 370 % of control | endpoint: median survival time, dose: 100.0 mg/kg/injection, schedule: Q01DX009 (ip), vehicle: saline 352 % of control
inactive: endpoint: median survival time, dose: 6.25 mg/kg/injection, schedule: Q01DX009 (ip), vehicle: saline with Tween-80 116 % of control and 121 % of control

CN(C)C(=O)CCC(NC(=O)c1ccc(N(C)Cc2cnc3nc(N)nc(N)c3n2)cc1)C(=O)O (stereo not given)
inactive: endpoint: mean survival time, dose: 1.0 mg/kg/injection, schedule: Q01DX009 (ip), vehicle: sodium bicarbonate 103 % of control | endpoint: mean survival time, dose: 10.0 mg/kg/injection, schedule: Q01DX009 (ip), vehicle: sodium bicarbonate 108 % of control

COC(=O)C1C2CC(O)C(C2)C1C(=O)OC (stereo not given)
inactive: endpoint: mean survival time, dose: 12.5 mg/kg/injection, schedule: Q01DX009 (ip), vehicle: saline with Tween-80 97 % of control | endpoint: mean survival time, dose: 25.0 mg/kg/injection, schedule: Q01DX009 (ip), vehicle: saline with Tween-80 101 % of control | [4] 104 % of control

O=c1ccc2c([nH]1)CCCC2
inactive: [4] 92 % of control | [5] 103 % of control | [6] 103 % of control

CCOC(=O)C(C)(C)Oc1nn(Cc2ccccc2)c2ccccc12
inactive: endpoint: mean survival time, dose: 25.0 mg/kg/injection, schedule: Q04DX003 (ip), vehicle: saline with Tween-80 104 % of control | [13] 102 % of control | [11] 102 % of control

— PubChem BioAssay AID256 (DTP/NCI, 2004)
